The text below walks through data of patent US12439920B2, “Pyridine n-oxide compound and pest control agent” (Nippon Soda Co., Ltd., priority 2019, dated 2025).

Assay type in all cases: in vivo
One assay concerns Aphis gossypii. As to the kind of experiment: Test of efficacy on Aphis gossypii (spray on cucumbers). Particulars: 125 ppm; sprayed; first instar larvae on cucumbers; after 5 days. The procedure:
5 parts of the compound of the present invention, 93.6 parts of dimethylformamide, and 1.4 parts of polyoxyethylene alkyl aryl ether were mixed and dissolved to prepare emulsion (I) containing 5% of the active ingredient. An insecticidal rate was calculated according to the following expression: Insecticidal rate (%)=(The number of dead insects/The number of tested insects)×100 A control rate was calculated according to the following expression: Control rate (%)={1−(Nt)/(Nc)}×100 • Nc: The number of parasites in an untreated plot • Nt: The number of parasites in a spray treated plot Cucumbers were sown in a 10-cm pot. An Aphis gossypii female adult was released to the cucumbers after 10 days from sprouting. On the next day, born first instar larvae were left, and the female adult was removed. Emulsion (I) was diluted with water such that the concentration of the compound of the present invention was 125 ppm. The dilution was sprayed to the cucumbers. The cucumbers were placed in a thermostat chamber having a temperature of 25° C. and a humidity of 60%. Life and death of Aphis gossypii were determined after 5 days, and the insecticidal rate was calculated.

The test system of another assay is Mythimna separata. Description: Test of efficacy on Mythimna separata (treated artificial feed). Particulars: second instar larvae, 1 μl of emulsion (I) (5% active ingredient) in 0.8 g artificial feed, fifth day, 25° C. The procedure:
5 parts of the compound of the present invention, 93.6 parts of dimethylformamide, and 1.4 parts of polyoxyethylene alkyl aryl ether were mixed and dissolved to prepare emulsion (I) containing 5% of the active ingredient. For a control, 93.6 parts of dimethylformamide and 1.4 parts of polyoxyethylene alkyl aryl ether were mixed and dissolved to prepare emulsion (II). An insecticidal rate was calculated according to the following expression: Insecticidal rate (%)=(The number of dead insects/The number of tested insects)×100 A control rate was calculated according to the following expression: Control rate (%)={1−(Nt)/(Nc)}×100 • Nc: The number of parasites in an untreated plot • Nt: The number of parasites in a spray treated plot 0.8 g of commercially available artificial feed (Insecta LFS, manufactured by Nosan Corp.) and 1 μl of the emulsion (I) were well mixed to obtain test feed. A plastic test container (capacity: 1.4 ml) was packed with 0.2 g of the test feed per treatment plot. Then, two second instar larvae of Mythimna separata were inoculated to each treatment plot. A plastic lid was put on the test container so as to prevent escape of the second instar larvae of Mythimna separata. The container was placed in a thermostat chamber of 25° C. On the fifth day, the insecticidal rate and the food intake were examined. The test was conducted in duplicate. […]

Assay [1] relates to Plutella xylostella. As to the kind of experiment: Test of efficacy on Plutella xylostella (cabbage leaf dip). Particulars: 125 ppm; cabbage leaves dipped 30 seconds; second instar larvae; after 3 days. The procedure:
5 parts of the compound of the present invention, 93.6 parts of dimethylformamide, and 1.4 parts of polyoxyethylene alkyl aryl ether were mixed and dissolved to prepare emulsion (I) containing 5% of the active ingredient. An insecticidal rate was calculated according to the following expression: Insecticidal rate (%)=(The number of dead insects/The number of tested insects)×100 A control rate was calculated according to the following expression: Control rate (%)={1−(Nt)/(Nc)}×100 • Nc: The number of parasites in an untreated plot • Nt: The number of parasites in a spray treated plot The emulsion (I) was diluted with water such that the concentration of the compound of the present invention was 125 ppm. Cabbage leaves were dipped in the dilution for 30 seconds. The resulting cabbage leaves were placed in a petri dish. Five second instar larvae of Plutella xylostella were released thereto. The petri dish was placed in a thermostat chamber having a temperature of 25° C. and a humidity of 60%. Life and death were determined after 3 days from the release of the insects, and the insecticidal rate was calculated. The test was conducted in duplicate.

Assay [2] concerns Phyllotreta striolata adults. Description: Test of efficacy on Phyllotreta striolata (spray on Qing geng cai seedlings). Particulars: 125 ppm, sprayed on Qing geng cai seedlings, after 7 days. On the procedure: (§1) 5 parts of the compound of the present invention, 93.6 parts of dimethylformamide, and 1.4 parts of polyoxyethylene alkyl aryl ether were mixed and dissolved to prepare emulsion (I) containing 5% of the active ingredient.
(§2) An insecticidal rate was calculated according to the following expression: Insecticidal rate (%)=(The number of dead insects/The number of tested insects)×100 A control rate was calculated according to the following expression: Control rate (%)={1−(Nt)/(Nc)}×100 • Nc: The number of parasites in an untreated plot • Nt: The number of parasites in a spray treated plot
The emulsion (I) was diluted with water such that the concentration of the compound of the present invention was 125 ppm to prepare a test chemical. The dilution was sprayed to Qing geng cai seedlings (at the seventh true leaf stage) planted in 10-cm pots. The Qing geng cai seedlings were dried in air and then placed in a plastic cup. Ten Phyllotreta striolata adults were released thereto. The plastic cup was stored in a thermostat chamber having a temperature of 25° C. and a humidity of 65%. Life and death were determined after 7 days from the release of the insects, and the insecticidal rate was calculated. The test was conducted in duplicate.

The test system of the next assay is Musca domestica. Description: Test of efficacy on Musca domestica (treated lump sugar). Particulars: 100 ppm on lump sugar; female adults; after 24 hours. The procedure:
as §2
The compound of the present invention was diluted with acetone, and the dilution was added dropwise to 1 g of lump sugar such that the concentration was 100 ppm. The lump sugar was placed in a plastic cup, ten Musca domestica female adults were released, and a lid was put on the cup. The plastic cup was stored at 25° C. Life and death were determined after 24 hours from the release of the insects, and the insecticidal rate was calculated. The test was conducted in duplicate.

Assay [3] concerns Plutella xylostella. As to the kind of experiment: Test of soil irrigation treatment against Plutella xylostella. Particulars: investigated after 3 days; for Control rate % 21 days after: first instar larvae inoculated 21 days after transplant; for Control rate % 28 days after: first instar larvae inoculated 28 days after transplant. On the procedure:
5 parts of the compound of the present invention, 93.6 parts of dimethylformamide, and 1.4 parts of polyoxyethylene alkyl aryl ether were mixed and dissolved to prepare emulsion (I) containing 5% of the active ingredient. An insecticidal rate was calculated according to the following expression: Insecticidal rate (%)=(The number of dead insects/The number of tested insects)×100 A control rate was calculated according to the following expression: Control rate (%)={1−(Nt)/(Nc)}×100 • Nc: The number of parasites in an untreated plot • Nt: The number of parasites in a spray treated plot The emulsion (I) was diluted with water such that the concentration of the compound of the present invention was 500 ppm or 250 ppm. Then, 500 mL of the dilution was subjected to irrigation treatment per 128-hole cell tray in which cabbage seedlings were planted. The cell seedlings were transplanted to No. 4 pots and maintained in a thermostat chamber having a temperature of 25° C. and a humidity of 65%. Then, 50 first instar larvae of Plutella xylostella were inoculated on the whole of a cabbage after 21 days and 28 days from the transplant, respectively. The life and the death of Plutella xylostella were investigated after 3 days, and a control rate was calculated according to the following expression. The test was conducted in quadruplicate. Control rate (%)={1−(Nt)/(Nc)}×100 • Nc: The number of parasites in an untreated plot • Nt: The number of parasites in a spray treated plot

The test system of the next assay is Aphis craccivora. Description: Test of efficacy on Aphis craccivora (spray on black-eyed peas). Particulars: 125 ppm; sprayed; nymphs on black-eyed peas; after 4 days. On the procedure:
as §1, §2
Seedlings of black-eyed peas were raised in 10-cm pots. Aphis craccivora nymphs were inoculated onto primary leaves. The emulsion (I) was diluted with water such that the concentration of the compound of the present invention was 125 ppm. The dilution was sprayed to the black-eyed peas parasitized by the Aphis craccivora nymphs. The black-eyed peas were placed in a thermostat chamber having a temperature of 25° C. and a humidity of 60%. Life and death of Aphis craccivora were determined after 4 days from the spraying, and the insecticidal rate was calculated. The test was conducted in duplicate.

[4] abbreviates: 250 ppm soil irrigation of cabbage seedlings.
The mark [5] stands for this setting: 500 ppm soil irrigation of cabbage seedlings.

For `CCS(=O)(=O)c1cc(C2CC2)c[n+]([O-])c1-c1nc2cc(S(=O)(=O)C(F)(F)F)ccc2o1` [A-1, 5-cyclopropyl-3-(ethylsulfonyl)-2-(5-((trifluoromethyl)sulfonyl)benzo[d]oxazol-2-yl)pyridine 1-oxide], the insecticidal rate is recorded as at least 80% in the assay with Aphis gossypii; 100% in the assay on Mythimna separata (stated as alternative to food intake ('or')); at least 80% in the assay with Plutella xylostella [1]; at least 80% in assay [2]; at least 80% in the assay on Musca domestica; at least 80% with Aphis craccivora. The “food intake as compared with the control plot” value with Mythimna separata (stated as alternative to insecticidal rate ('or')) was at most 10%. Moreover, the entries for the “Control rate % 21 days after” value with Plutella xylostella [3] (setting [4]) and with Plutella xylostella [3] (setting [5]) were 98% and 100%, respectively. The figures for the “Control rate % 28 days after” value in the assay with Plutella xylostella [3] (setting [4]) and in the assay on Plutella xylostella [3] (setting [5]) were 99% and 100%, respectively.
